How the values were obtained:
human V1a receptor = target: T1, human V1a receptor (Homo sapiens, UniProt P37288); test: Cellular in vitro assay for determining vasopressin receptor activity, V1a receptor cell line (CHO, aequorin luminescence); format: cell-based; conditions: for IC50: CHO cell line transfected with human V1a receptor, [Arg]-vasopressin at EC50 concentration, read-out: IC50 hV1a; for ratio IC50 hV2/hV1a: selectivity ratio IC50 hV2 / IC50 hV1a
T1 construct: expressed in transfected cells; host or cells: CHO K1 (ATCC), also stably transfected with a modified aequorin
Method in brief: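 Cells were plated the day before in medium containing 5 μg/ml coelenterazine and kept at 37° C. Compounds at various concentrations were then added for 10 minutes. Next, [Arg]-vasopressin at EC50 was applied and light output recorded at once, yielding IC50.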

human V2 receptor = target: T2, human V2 receptor (Homo sapiens, UniProt P30518); test: Cellular in vitro assay for determining vasopressin receptor activity, V2 receptor cell line (CHO, CRE-luciferase); format: cell-based; conditions: CHO cell line transfected with human V2 receptor; [Arg8]-vasopressin at EC50 concentration, 3 hours; read-out: IC50 hV2
T2 construct: expressed in transfected cells; host or cells: CHO K1 (ATCC) expressing firefly luciferase under a CRE-responsive promoter
T2 sequence (P30518 whole entry): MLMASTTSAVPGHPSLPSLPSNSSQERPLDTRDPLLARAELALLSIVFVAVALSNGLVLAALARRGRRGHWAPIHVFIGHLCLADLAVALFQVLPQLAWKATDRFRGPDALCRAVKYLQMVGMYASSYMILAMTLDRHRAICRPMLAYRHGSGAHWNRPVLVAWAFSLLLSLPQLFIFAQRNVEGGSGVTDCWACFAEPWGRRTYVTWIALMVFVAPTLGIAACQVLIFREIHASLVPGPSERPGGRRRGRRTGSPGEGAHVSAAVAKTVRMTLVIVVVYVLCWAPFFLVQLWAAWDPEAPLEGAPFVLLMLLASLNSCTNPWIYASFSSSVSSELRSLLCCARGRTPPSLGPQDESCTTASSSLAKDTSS

T1 sequence (P37288 whole entry): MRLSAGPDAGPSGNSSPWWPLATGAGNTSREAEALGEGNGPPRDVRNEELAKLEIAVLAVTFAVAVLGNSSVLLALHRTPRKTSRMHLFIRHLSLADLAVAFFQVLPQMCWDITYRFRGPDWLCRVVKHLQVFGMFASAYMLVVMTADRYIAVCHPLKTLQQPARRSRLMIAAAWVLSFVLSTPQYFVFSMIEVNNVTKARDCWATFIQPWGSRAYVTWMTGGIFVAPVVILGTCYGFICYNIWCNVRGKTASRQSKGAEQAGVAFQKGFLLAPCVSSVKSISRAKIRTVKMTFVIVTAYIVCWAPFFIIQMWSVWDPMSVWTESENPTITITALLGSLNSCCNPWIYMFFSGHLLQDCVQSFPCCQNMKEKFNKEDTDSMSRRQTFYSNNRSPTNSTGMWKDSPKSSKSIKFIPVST

Row | IC50 (human V1a receptor) [nM] | ratio IC50 hV2/hV1a (human V1a receptor) | IC50 (human V2 receptor) [nM] | Compound
1 | 27 | 15.7 | 425 | CCC(C)(O)C(=O)Nc1ncccc1-n1cnc(Cn2nc(-c3ccc(Cl)cc3)n(C[C@H](O)C(F)(F)F)c2=O)n1 (stereo partly drawn) [Example 120]
2 | 52 | 28.8 | 1500 | O=C(Nc1ncccc1-n1cnc(Cn2nc(-c3ccc(Cl)cc3)n(C[C@H](O)C(F)(F)F)c2=O)n1)c1ccc(F)cc1 [Example 121]
3 | 120 | 13.8 | 1650 | Cc1ccccc1C(=O)Nc1ncccc1-n1cnc(Cn2nc(-c3ccc(Cl)cc3)n(C[C@H](O)C(F)(F)F)c2=O)n1 [Example 122]
4 | 105 | 21.9 | 2300 | Cc1ccc(C(=O)Nc2ncccc2-n2cnc(Cn3nc(-c4ccc(Cl)cc4)n(C[C@H](O)C(F)(F)F)c3=O)n2)cc1 [Example 123]
5 | 315 | 12.1 | 3800 | Cc1n[nH]c(C)c1C(=O)Nc1ncccc1-n1cnc(Cn2nc(-c3ccc(Cl)cc3)n(C[C@H](O)C(F)(F)F)c2=O)n1 [Example 124]
6 | 29.5 | 12.2 | 360 | NC(=O)C1(C(=O)Nc2ncccc2-n2cnc(Cn3nc(-c4ccc(Cl)cc4)n(C[C@H](O)C(F)(F)F)c3=O)n2)CC1 [Example 125]
7 | 36 | 6.9 | 250 | CC[C@@H](C)C(=O)Nc1ncccc1-n1cnc(Cn2nc(-c3ccc(Cl)cc3)n(C[C@H](O)C(F)(F)F)c2=O)n1 [Example 126]
8 | 160 | 6.6 | 1050 | Cc1ccn(CC(=O)Nc2ncccc2-n2cnc(Cn3nc(-c4ccc(Cl)cc4)n(C[C@H](O)C(F)(F)F)c3=O)n2)n1 [Example 127]
9 | 13.5 | 111.1 | 1500 | Cc1nnsc1C(=O)Nc1ncccc1-n1cnc(Cn2nc(-c3ccc(Cl)cc3)n(C[C@H](O)C(F)(F)F)c2=O)n1 [Example 128]
10 | 670 | 5.4 | 3650 | Cc1cc(C(=O)Nc2ncccc2-n2cnc(Cn3nc(-c4ccc(Cl)cc4)n(C[C@H](O)C(F)(F)F)c3=O)n2)nn1C [Example 129]
11 | 189 | 23.9 | 4500 | Cc1[nH]ncc1C(=O)Nc1ncccc1-n1cnc(Cn2nc(-c3ccc(Cl)cc3)n(C[C@H](O)C(F)(F)F)c2=O)n1 [Example 130]
12 | 12.5 | 156.0 | 1950 | CC(C(=O)Nc1ncccc1-n1cnc(Cn2nc(-c3ccc(Cl)cc3)n(C[C@H](O)C(F)(F)F)c2=O)n1)n1ccnc1 (stereo partly drawn) [Example 131]
13 | 45.5 | 113.2 | 5150 | Cn1cncc1C(=O)Nc1ncccc1-n1cnc(Cn2nc(-c3ccc(Cl)cc3)n(C[C@H](O)C(F)(F)F)c2=O)n1 [Example 132]
14 | 4.9 | 295.9 | 1450 | Cc1nonc1C(=O)Nc1ncccc1-n1cnc(Cn2nc(-c3ccc(Cl)cc3)n(C[C@H](O)C(F)(F)F)c2=O)n1 [Example 133]
15 | 117 | 10.7 | 1250 | O=C(Nc1ncccc1-n1cnc(Cn2nc(-c3ccc(Cl)cc3)n(C[C@H](O)C(F)(F)F)c2=O)n1)C1CCOCC1 [Example 134]
16 | 66.5 | 14.0 | 930 | Cc1cc(CC(=O)Nc2ncccc2-n2cnc(Cn3nc(-c4ccc(Cl)cc4)n(C[C@H](O)C(F)(F)F)c3=O)n2)on1 [Example 135]
17 | 23.5 | 14.5 | 340 | O=C(CC1CCC1)Nc1ncccc1-n1cnc(Cn2nc(-c3ccc(Cl)cc3)n(C[C@H](O)C(F)(F)F)c2=O)n1 [Example 136]
18 | 146 | 9.2 | 1350 | COC(C)(C)C(=O)Nc1ncccc1-n1cnc(Cn2nc(-c3ccc(Cl)cc3)n(C[C@H](O)C(F)(F)F)c2=O)n1 [Example 137]

— patent publication US11173151B2, “Substituted triazole derivatives and uses thereof” (BAYER AKTIENGESELLSCHAFT, priority 2017, dated 2021)
